Measured values published in paper PMC11255338, “A deterministic, c-di-GMP-dependent program ensures the generation of phenotypically similar, symmetric daughter cells during cytokinesis” (Nature Communications, 2024).
One block for each molecule: values may come before it.

Legend:
[1] = biological target: T1, MalE-DmxA^WT (Myxococcus xanthus, UniProt Q1D632); assay: diguanylate cyclase assay, pyrophosphate release (EnzChek); assay type: biochemical; settings: 1 µM protein, 50 µM GTP
T1 construct: gene MXAN_3705; residues 223-722 (two GAF domains + GGDEF; N-terminal transmembrane domain removed), N-terminal MalE (MBP) tag kept, pMAL-c6t, E. coli Rosetta DE3; dimer by SEC
T1 sequence (Q1D632 211-710): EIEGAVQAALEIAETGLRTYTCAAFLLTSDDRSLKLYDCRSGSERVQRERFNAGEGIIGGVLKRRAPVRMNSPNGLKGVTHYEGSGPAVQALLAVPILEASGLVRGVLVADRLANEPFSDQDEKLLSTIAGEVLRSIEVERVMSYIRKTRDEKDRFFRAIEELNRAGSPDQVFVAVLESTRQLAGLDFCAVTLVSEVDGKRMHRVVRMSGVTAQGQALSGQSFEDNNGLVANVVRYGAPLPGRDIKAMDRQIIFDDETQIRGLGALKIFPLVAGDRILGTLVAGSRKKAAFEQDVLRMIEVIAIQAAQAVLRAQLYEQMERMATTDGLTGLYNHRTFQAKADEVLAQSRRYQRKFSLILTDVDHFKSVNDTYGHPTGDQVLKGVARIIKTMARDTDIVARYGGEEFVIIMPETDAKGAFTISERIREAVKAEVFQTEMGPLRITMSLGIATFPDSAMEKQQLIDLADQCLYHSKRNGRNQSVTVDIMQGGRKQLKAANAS

[2] = biological target: T2, MalE-DmxA^WT (Myxococcus xanthus, UniProt Q1D632); assay: as above; assay type: biochemical; settings: 1 µM protein, 50 µM GTP; I-site mutant
T2 construct: gene MXAN_3705; residues 223-722 (two GAF domains + GGDEF; N-terminal transmembrane domain removed), N-terminal MalE (MBP) tag kept, pMAL-c6t, E. coli Rosetta DE3; dimer by SEC
T2 sequence (Q1D632 entry or part of it R603A): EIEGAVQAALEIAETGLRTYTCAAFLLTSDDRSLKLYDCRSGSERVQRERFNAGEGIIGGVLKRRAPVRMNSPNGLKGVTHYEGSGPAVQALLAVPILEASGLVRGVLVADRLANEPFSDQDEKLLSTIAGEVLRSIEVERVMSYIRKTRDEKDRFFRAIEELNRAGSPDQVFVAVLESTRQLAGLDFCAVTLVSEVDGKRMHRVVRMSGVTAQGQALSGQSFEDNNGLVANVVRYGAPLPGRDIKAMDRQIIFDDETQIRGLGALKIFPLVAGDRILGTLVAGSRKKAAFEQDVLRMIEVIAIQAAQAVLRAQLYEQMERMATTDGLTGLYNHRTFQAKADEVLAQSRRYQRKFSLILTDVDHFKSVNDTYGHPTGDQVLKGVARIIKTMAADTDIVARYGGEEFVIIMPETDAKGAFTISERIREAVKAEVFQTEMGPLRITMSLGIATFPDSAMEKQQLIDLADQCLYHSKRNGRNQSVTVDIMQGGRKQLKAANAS

[3] = biological target: T3, MalE-DmxA^WT (Myxococcus xanthus, UniProt Q1D632, E614A); assay: bio-layer interferometry, biotinylated c-di-GMP immobilised on streptavidin sensor; assay type: binding; settings: labelled compound (biotinylated c-di-GMP, immobilised); 10 µM protein; active-site mutant
T3 construct: gene MXAN_3705; residues 223-722 (two GAF domains + GGDEF; N-terminal transmembrane domain removed), N-terminal MalE (MBP) tag kept, pMAL-c6t, E. coli Rosetta DE3; dimer by SEC

[4] = biological target: T1, MalE-DmxA^WT; assay: diguanylate cyclase assay, pyrophosphate release (EnzChek), variable-slope inhibition fit; assay type: biochemical
[5] = biological target: MalE-DmxA^E626A (DmxA residues 223-722 with the catalytic-site substitution E626A) (Myxococcus xanthus DK1622); assay: SEC; HiLoad 16/600 Superdex 200 pg; SEC buffer 50 mM Tris-HCl pH 7.2, 250 mM NaCl, 10 mM MgCl2, 5 mM DTT, 5% glycerol; column calibrated with Ribonuclease A, Carbonic Anhydrase, Conalbumin and Ferritin; oligomeric state estimated from the elution volume
[6] = biological target: MalE-DmxA^GAF×2 (DmxA residues 223-547: only the two GAF domains) (Myxococcus xanthus DK1622); assay: as above
[7] = biological target: MalE-DmxA^R615A (DmxA residues 223-722 with the I-site substitution R615A) (Myxococcus xanthus DK1622); assay: as above
[8] = biological target: MalE-DmxA^WT (DmxA residues 223-722: two GAF domains and the GGDEF domain) (Myxococcus xanthus DK1622); assay: as above

T3 sequence (Q1D632 entry or part of it E614A): as the sequence (Q1D632 entry or part of it R603A) above, with A393R, E404A counted along it

Molecule: Nc1nc2c(ncn2[C@@H]2O[C@H](COP(=O)(O)OP(=O)(O)OP(=O)(O)O)[C@@H](O)[C@H]2O)c(=O)[nH]1 [GTP]
diguanylate cyclase assay, pyrophosphate release (EnzChek) [1]: MalE-DmxA^WT and MalE-DmxA^R615A had DGC activity | diguanylate cyclase assay, pyrophosphate release (EnzChek) [2]: MalE-DmxA^WT and MalE-DmxA^R615A had DGC activity

Molecule: MalE-DmxA^E626A (DmxA residues 223-722 with the catalytic-site substitution E626A) (domain or fragment)
stoichiometry N [5]: 2

Molecule: MalE-DmxA^R615A (DmxA residues 223-722 with the I-site substitution R615A) (domain or fragment)
stoichiometry N [7]: 2

Continued, in another order:

Ki [4]: ~15 µM
Molecule: Nc1nc2c(ncn2[C@@H]2O[C@@H]3COP(=O)(O)O[C@H]4[C@@H](O)[C@H](n5cnc6c(=O)[nH]c(N)nc65)O[C@@H]4COP(=O)(O)O[C@H]3[C@H]2O)c(=O)[nH]1 [c-di-GMP]
bio-layer interferometry, biotinylated c-di-GMP immobilised on streptavidin sens [3]: MalE-DmxA^WT and MalE-DmxA^E626A bound c-di-GMP

stoichiometry N [6]: 2
Molecule: MalE-DmxA^GAF×2 (DmxA residues 223-547: only the two GAF domains) (domain or fragment)

stoichiometry N [8]: 2
Molecule: MalE-DmxA^WT (DmxA residues 223-722: two GAF domains and the GGDEF domain) (domain or fragment)
